Like-named read-outs stand apart in the source and are kept apart here.
Legend:
[1] = In vitro keratolysis study: release of protein from ground callus (BioRad protein assay); conditions: for Protein release compared with glycolic acid, other bases / water control: 10 minutes (Example 7); for Protein release compared with glycolic acid / water control: all time points (Example 6)
Protocol: An in vitro keratolysis study was performed to compare the capability of glycolic acid and a base for removing protein from stratum corneum. Adult foot callus was collected, grounded and the portion between 50-80 mesh was used. Glycolic acid and sodium hydroxide solutions (concentration=0.05 M) were prepared in distilled water. Ten mg of ground callus powder was place in a test tube. Four ml of a test chemical was added to the callus and the test tube was placed in a shaker and incubated in a water bath at 37° C. for a predetermined incubation time. The incubation time periods were 10 min., 40 min, 2 hours, 4 hours, 6 hours and 24 hours. Six samples of each base were tested a total of six times each at each of the aforementioned incubation time periods.
At the end of each incubation period, the test tube was removed from the shaker and the test tube was centrifuged. The solution was removed and filtered, and the protein in the solution was then determined using a BioRad® protein assay kit.

[2] = cited from earlier work; for Alkalinity / base strength in words: aqueous solution
[3] = cited from earlier work
[4] = In vitro keratolysis study: release of protein from ground callus (BioRad protein assay); conditions: incubation 40 minutes (Table 3)
[5] = 0.05 M solutions, incubation time 10 minutes (Table 2, Example 7)
[6] = 0.05 M solution, 37° C., incubation 10 min (Table 1)
[7] = 0.05 M solution, 37° C., incubation 40 min (Table 1)
[8] = 0.05 M solution, 37° C., incubation 2 hours (Table 1)
[9] = 0.05 M solution, 37° C., incubation 4 hours (Table 1)
[10] = 0.05 M solution, 37° C., incubation 6 hours (Table 1)
[11] = 0.05 M solution, 37° C., incubation 24 hours (Table 1)

CCC(N)CO (centres unmarked) [2-amino-1-butanol]
Amount of Protein Released [1, 5]: 0.174 mg/4 ml

CC(N)(CO)CO [2-amino-2-methyl-1,3-propanediol]
pH of Aqueous Solution (concentration) ([2]; 0.1 m): 10.8 (0.1 m)

CC(C)(N)CO [2-amino-2-methyl-1-propanol]
pH of Aqueous Solution (concentration) ([2]; 0.1 m): 11.3 (0.1 m)

N [Ammonium hydroxide]
pH of Aqueous Solution (concentration) ([2]; 0.001 N): 10.27 | pH of Aqueous Solution (concentration) ([2]; 1 N): 11.27

N.N.O=P(O)(O)O [Ammonium phosphate, dibasic]
pH of Aqueous Solution (concentration) ([2]; concentration not given): ˜8

N=C(N)NCCC[C@H](N)C(=O)O [Arginine]
Amount of Protein Released [1, 5]: 0.153 mg/4 ml

C[N+](C)(C)CC(=O)O [Betaine]
Amount of Protein Released [1, 5]: 0.144 mg/4 ml

[O]=[Ca] [Calcium oxide]
Solubility in water [3]: Soluble in water, Form Ca(OH)2

NC1CCCCC1 [Cyclohexylamine]
Alkalinity / base strength in words [2]: Strong base

OCCNCCO [Diethanolamine]
pH of Aqueous Solution (concentration) ([2]; 0.1 N): 11.0 (0.1 N) | Amount of Protein Released [1, 5]: 0.144 mg/4 ml

NCCN [Ethylenediamine]
Alkalinity / base strength in words [2]: Strong base | Amount of Protein Released ([4]; 0.005% solution): 0.059 mg/4 ml | Amount of Protein Released ([4]; 0.01% solution): 0.080 mg/4 ml

O=C(O)CO [Glycolic Acid, reference compound]
Amount of Protein Released [1, 6]: 0.093 mg/4 ml | Amount of Protein Released [1, 7]: 0.175 mg/4 ml | Amount of Protein Released [1, 8]: 0.126 mg/4 ml | Amount of Protein Released [1, 9]: 0.219 mg/4 ml | Amount of Protein Released [1, 10]: 0.089 mg/4 ml | Amount of Protein Released [1, 11]: 0.173 mg/4 ml | Amount of Protein Released [1, 5]: 0.187 mg/4 ml | Protein release compared with glycolic acid, other bases / water control ([1]; 0.05 M): did not show significant differences in comparison with water | Protein release compared with glycolic acid / water control ([1]; 0.05 M): did not show statistical differences in comparison with water

N[C@@H](Cc1c[nH]c2ccccc12)C(=O)O [L-tryptophan]
Amount of Protein Released [1, 5]: 0.170 mg/4 ml

[O]=[Mg] [Magnesium oxide]
pH of Aqueous Solution (concentration) ([2]; saturated solution in water): 10.3 (saturated aqueous solution)

[Na+].[OH-] [NaOH, Sodium hydroxide]
pH of Aqueous Solution (concentration) ([2]; 0.05%): 12 | pH of Aqueous Solution (concentration) ([2]; 0.5%): 13 | pH of Aqueous Solution (concentration) ([2]; 5%): 14 | Protein released at 6 hours and 24 hours compared with 10 minutes, 40 minutes, 2 hours and 4 hours ([1]; 0.05 M): significantly higher | Amount of Protein Released [1, 6]: 0.419 mg/4 ml | Amount of Protein Released [1, 7]: 0.739 mg/4 ml | Amount of Protein Released [1, 8]: 0.899 mg/4 ml | Amount of Protein Released [1, 9]: 1.003 mg/4 ml | Amount of Protein Released [1, 10]: 4.853 mg/4 ml | Amount of Protein Released [1, 11]: 5.148 mg/4 ml | Amount of Protein Released [1, 5]: 0.544 mg/4 ml | Protein release compared with glycolic acid, other bases / water control ([1]; 0.05 M): released more protein | Protein release compared with glycolic acid / water control ([1]; 0.05 M): released more protein | Amount of Protein Released ([4]; 0.005% solution): 0.059 mg/4 ml | Amount of Protein Released ([4]; 0.01% solution): 0.074 mg/4 ml

NCCc1ccccc1 [Phenethylamine]
Alkalinity / base strength in words [2]: Strong base

C1CCNCC1 [Piperidine]
Alkalinity / base strength in words [2]: Strong base | Amount of Protein Released ([4]; 0.005% solution): 0.066 mg/4 ml | Amount of Protein Released ([4]; 0.01% solution): 0.071 mg/4 ml

CC(=O)[O-].[K+] [Potassium acetate]
Amount of Protein Released ([4]; 0.005% solution): 0.060 mg/4 ml | Amount of Protein Released ([4]; 0.01% solution): 0.064 mg/4 ml

O=C([O-])[O-].[K+].[K+] [Potassium carbonate]
Amount of Protein Released ([4]; 0.005% solution): 0.068 mg/4 ml | Amount of Protein Released ([4]; 0.01% solution): 0.073 mg/4 ml

O=C([O-])CC(O)(CC(=O)[O-])C(=O)[O-].[K+].[K+].[K+] [Potassium citrate]
pH of Aqueous Solution (concentration) ([2]; concentration not given): ˜8.5

O=P([O-])([O-])O.[K+].[K+] [Potassium phosphate, dibasic]
Alkalinity / base strength in words [2]: Aqueous solution is slightly alkaline

C1CCNC1 [Pyrrolidine]
Alkalinity / base strength in words [2]: Strong base | Amount of Protein Released ([4]; 0.005% solution): 0.060 mg/4 ml | Amount of Protein Released ([4]; 0.01% solution): 0.066 mg/4 ml

CC(=O)[O-].[Na+] [Sodium acetate, anhydrous]
pH of Aqueous Solution (concentration) ([2]; 0.1 N): ˜8.9 (0.1 N)

O=C([O-])[O-].[Na+].[Na+] [Sodium carbonate anhydrous]
pH of Aqueous Solution (concentration) ([2]; concentration not given): ˜11.6

O=B[O-].[Na+] [Sodium metaborate]
Alkalinity / base strength in words [2]: Strongly alkaline

O=P([O-])([O-])O.[Na+].[Na+] [Sodium phosphate, dibasic, anhydrous]
pH of Aqueous Solution (concentration) ([2]; 1% (1.0%)): 9.1 (1%)

O.O.O=P([O-])([O-])O.[Na+].[Na+] [Sodium phosphate, dibasic, dihydrate]
pH of Aqueous Solution (concentration) ([2]; concentration not given): ˜9.5

O.O.O.O.O.O.O.O.O.O.O.O.O=P([O-])([O-])O.[Na+].[Na+] [Sodium phosphate, dibasic, dodecahydrate]
pH of Aqueous Solution (concentration) ([2]; concentration not given): ˜9.5

O.O.O.O.O.O.O.O=P([O-])([O-])O.[Na+].[Na+] [Sodium phosphate, dibasic, heptahydrate]
pH of Aqueous Solution (concentration) ([2]; concentration not given): ˜9.5

O=P([O-])([O-])O.[Na+].[Na+] [Sodium phosphate, dibasic]
pH of Aqueous Solution (concentration) ([2]; concentration not given): ˜9.5

O.O.O.O.O.O.O.O.O.O.O.O.O=P([O-])([O-])[O-].[Na+].[Na+].[Na+] [Sodium phosphate, tribasic dodecahydrate]
pH of Aqueous Solution (concentration) ([2]; 0.1%): 11.5 | pH of Aqueous Solution (concentration) ([2]; 0.5%): 11.7 | pH of Aqueous Solution (concentration) ([2]; 1% (1.0%)): 11.9

O=P([O-])([O-])[O-].[Na+].[Na+].[Na+] [Sodium phosphate, tribasic]
Amount of Protein Released ([4]; 0.005% solution): 0.048 mg/4 ml | Amount of Protein Released ([4]; 0.01% solution): 0.050 mg/4 ml

CN(C)C [Trimethylamine]
Alkalinity / base strength in words [2]: Strong base
